Among the data in the NIST ThermoML archive (doi:10.1021/je8009978) are mass density, Normal boiling temperature and refractive index values, retold here.

± gives the expanded uncertainty stated by the source.

For series [1] the following is noted: Liquid.
Series [2] in a line: refractive index (Na D-line) (dimensionless). The following applies: 298.15 K; 101.33 kPa; Liquid; Standard Abbe refractometry.

In general, mass density refers to mass per unit of volume. One may read the refractive index as the speed of light in vacuum divided by its phase velocity in the sample. In the case of `CC(C)CO` [2-methyl-1-propanol], the mass density in series [1] (298.15 K, 101.33 kPa, Vibrating tube method) was 797.6 ± 0.3 kg/m3. Moreover, the Normal boiling temperature in series [1] (Closed cell (Static) method) came out at 107.83 ± 0.2 °C. In series [2], the refractive index worked out at 1.3939 ± 0.0004.
